25 molecules from patent US12281079B2, “Quinoline derivatives, processes for their preparation and uses thereof for the treatment of cancer” (Lead Discovery Center GmbH, priority 2019, dated 2025) can be followed below.

mitochondrial RNA polymerase (POLRMT), sequence (Q8BKF1 42-1207): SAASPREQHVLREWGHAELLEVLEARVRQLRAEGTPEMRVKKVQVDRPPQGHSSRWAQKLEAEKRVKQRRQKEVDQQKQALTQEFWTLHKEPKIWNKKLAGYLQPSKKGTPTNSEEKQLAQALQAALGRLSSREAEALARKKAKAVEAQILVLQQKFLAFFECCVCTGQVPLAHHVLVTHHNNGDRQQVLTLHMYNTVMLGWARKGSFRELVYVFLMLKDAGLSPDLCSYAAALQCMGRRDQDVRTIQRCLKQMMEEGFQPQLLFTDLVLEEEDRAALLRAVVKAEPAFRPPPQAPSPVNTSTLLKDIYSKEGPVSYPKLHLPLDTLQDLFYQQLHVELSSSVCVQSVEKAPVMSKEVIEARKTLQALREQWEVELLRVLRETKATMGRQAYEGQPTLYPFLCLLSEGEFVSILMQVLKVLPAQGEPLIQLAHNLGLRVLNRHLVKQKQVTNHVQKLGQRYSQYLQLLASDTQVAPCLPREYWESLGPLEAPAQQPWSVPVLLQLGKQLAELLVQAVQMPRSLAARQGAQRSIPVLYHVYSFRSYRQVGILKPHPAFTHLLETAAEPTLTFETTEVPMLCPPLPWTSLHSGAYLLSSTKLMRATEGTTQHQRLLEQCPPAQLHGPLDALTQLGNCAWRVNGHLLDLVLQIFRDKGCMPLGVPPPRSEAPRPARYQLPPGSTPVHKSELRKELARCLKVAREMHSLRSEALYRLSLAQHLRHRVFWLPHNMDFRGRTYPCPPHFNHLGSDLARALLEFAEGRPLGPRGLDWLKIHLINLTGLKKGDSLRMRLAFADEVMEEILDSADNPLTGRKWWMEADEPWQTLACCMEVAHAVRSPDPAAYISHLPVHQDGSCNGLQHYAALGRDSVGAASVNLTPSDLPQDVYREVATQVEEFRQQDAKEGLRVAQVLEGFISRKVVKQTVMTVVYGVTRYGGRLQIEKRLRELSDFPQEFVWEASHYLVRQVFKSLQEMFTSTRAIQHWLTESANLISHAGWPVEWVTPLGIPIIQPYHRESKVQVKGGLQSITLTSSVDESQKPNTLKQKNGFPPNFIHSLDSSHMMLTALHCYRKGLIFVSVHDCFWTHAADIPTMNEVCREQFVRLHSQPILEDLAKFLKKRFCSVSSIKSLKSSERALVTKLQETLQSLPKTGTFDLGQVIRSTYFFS

This assay concerns the target mitochondrial RNA polymerase (POLRMT) (Mus musculus, UniProt Q8BKF1). The experiment in a line: Homogeneous TR-FRET assay for mitochondrial transcription activity. The assay is classed as biochemical. Particulars: homogeneous TR-FRET assay according to Example 4. The text has this: The TR-FRET assay was basically conducted as described in WO2016/193231A1, especially as described in example 1 (hereby incorporated by reference). With respect to the back ground of the mitochondrial transcription it is referred to Falkenberg et al. (2002) and Posse et al. (Posse et al., 2015). The method monitors the activity of mitochondrial RNA-polymerase via detection of the formation of its product, a 407 bp long RNA sequence. Detection of the product is facilitated by hybridization of two DNA-oligonucleotide probes to specific and adjacent sequences within the RNA product sequence. Upon annealing of the probes, two fluorophores that are coupled directly to an acceptor nucleotide probe (ATT0647, 5′) or introduced via a coupled streptavidin interacting with a biotinylated donor nucleotide probe on the other side (Europium cryptate, 3′) are brought into sufficient proximity to serve as a fluorescence-donor-acceptor pair as generally described in Walters and Namchuk (2003). Thus, a FRET signal at 665 nm is generated upon excitation at 340 nm.
Briefly, the protocol described here was applied for screening and activity determination in a low-volume 384-well microtiter plate with non-binding surface. For high-throughput application in the 1536-well microtiter plate format, volumes of the reagent mixes were adjusted, maintaining the volumetric ratio. Proteins POLRMT (NM_172551.3), TFAM (NM_009360.4) and TFB2M (NM_008249.4) were diluted from their stocks to working concentrations of 150 nM, 1.8 μM and 330 nM respectively, in a dilution buffer containing 100 mM Tris-HCl pH 8.0, 200 mM NaCl, 10% (v/v) glycerole, 2 mM glutathione (GSH), 0.5 mM EDTA and 0.1 mg/mL BSA. Protein dilutions and template DNA, comprising a pUC18 plasmid encoding the mitochondrial light strand promoter, restriction linearized proximal to the promoter 3′-end (pUC-LSP), were mixed at the twofold final assay-concentration in a reaction buffer, containing 10 mM Tris-HCl pH 7.5, 10 mM MgCl2, 40 mM NaCl, 2 mM GSH, 0.01% (w/v) Tween-20 and 0.1 mg/mL BSA.
5 μL of this mix were dispensed, depending on the chosen microtiter plate format, using multi-channel pipettes or a Multidrop® dispenser (Thermo Fisher Scientific, Waltham Mass.) into the wells of a microtiter plate and incubated at room temperature (rt) for 10 min. Chemical compounds under scrutiny in the assay were applied using contact-free acoustic droplet-dispensing (Echo520® Labcyte Inc., Sunnyvale Calif.) from 10 mM compound stocks in 100% DMSO, to a final concentration of 10 μM or in serial dilution series of the required concentration range. Equal amounts of DMSO without any compound were added to positive control samples, followed by an incubation step at rt for 10 min.
The enzymatic reaction was started by the addition of 5 μL of a mix of dNTPs in reaction buffer to a final concentration of 500 μM each. No nucleotide mix was added to negative control samples. The content of the wells was mixed using a VarioTeleshaker™ (Thermo Fisher Scientific, Waltham Mass.) at 1500 rpm for 45 sec after which the microtiter plate was centrifuged at 500×g for 1 min. The samples were incubated for 2 h at rt with humidity control to avoid evaporation. The detection reagents were prepared in a buffer that was composed, such that the enzymatic reaction was terminated due to chelating of Mg-ions and increased ionic strength, containing 50 mM Tris-HCl pH 7.5, 700 mM NaCl, 20 mM EDTA, and 0.01% (w/v) Tween-20. Importantly Eu-cryptate-coupled streptavidin had to be preincubated with a 100-fold molar excess of a random sequence oligonucleotide for 10 min at rt in the dark to block unspecific binding of single stranded RNA to the protein. Subsequently, the blocked streptavidin(-Eu) was mixed with the DNA-probes on ice and kept away from light until use. […]
For the molecule `C[C@@H](Oc1ccc2c(-c3ccccc3C(F)(F)F)ccnc2c1)C(=O)N1CCC[C@H](CC(=O)O)C1` [Compound 136, 2-[(3R)-1-[(2R)-2-[[4-[2-(trifluoromethyl)phenyl]-7-quinolyl]oxy]propanoyl]-3-piperidyl]acetic acid], the IC50 lay in the range of 100 to 1000 nM.

`Cc1ccccc1-c1ccnc2cc(OCC(N)=O)ccc12` [Compound 106, 2-((4-(o-tolyl)quinolin-7-yl)oxy)acetamide] gave an IC50 of 1000 to 10000 nM.

As to `CCOC(=O)C[C@@H]1CCCN(C(=O)[C@@H](C)Oc2ccc3c(-c4ccc(F)cc4Cl)ccnc3c2)C1` [Compound 89, ethyl 2-[(3S)-1-[(2R)-2-[[4-(2-chloro-4-fluoro-phenyl)-7-quinolyl]oxy]propanoyl]-3-piperidyl]acetate], the IC50 lay within 1000 to 10000 nM.

As for `CCOC(=O)[C@H]1CCCN(C(=O)[C@@H](C)Oc2ccc3c(-c4ccc(F)cc4C)cc(Cl)nc3c2)C1` [Compound 94, ethyl (3S)-1-[(2R)-2-[[2-chloro-4-(4-fluoro-2-methyl-phenyl)-7-quinolyl]oxy]propanoyl]piperidine-3-carboxylate], the IC50 is 1000 to 10000 nM.

Take `C[C@@H](Oc1ccc2c(-c3c(C(F)(F)F)cccc3C(F)(F)F)ccnc2c1)C(=O)N1CCC[C@H](CC(=O)O)C1` [Compound 151, 2-[(3R)-1-[(2R)-2-[[4-[2,6-bis(trifluoromethyl)phenyl]-7-quinolyl]oxy]propanoyl]-3-piperidyl]acetic acid]: the IC50 was in the range of 1000 to 10000 nM.

Regarding `C#Cc1ccccc1-c1ccnc2cc(O[C@H](C)C(=O)N3CCC[C@H](CC(=O)O)C3)ccc12` [Compound 144, 2-[(3R)-1-[(2R)-2-[[4-(2-ethynylphenyl)-7-quinolyl]oxy]propanoyl]-3-piperidyl]acetic acid], the IC50 is 20 to 100 nM.

With `COC(=O)C1CC(NC(=O)[C@@H](C)Oc2ccc3c(-c4ccc(F)cc4Cl)ccnc3c2)C1` (stereo partly drawn) [Compound 54, methyl 3-[[(2R)-2-[[4-(2-chloro-4-fluoro-phenyl)-7-quinolyl]oxy]propanoyl]amino]cyclobutanecarboxylate], the IC50 was in the range of 100 to 1000 nM.

In the case of `CC(C)c1ccccc1-c1ccnc2cc(O[C@H](C)C(=O)N3CCC[C@H](CC(=O)O)C3)ccc12` [Compound 122, 2-[(3R)-1-[(2R)-2-[[4-(2-isopropylphenyl)-7-quinolyl]oxy]propanoyl]-3-piperidyl]acetic acid], the IC50 was 1000 to 10000 nM.

With `C[C@@H](Oc1ccc2c(-c3ccccc3Cl)cc(Cl)nc2c1)C(=O)N1CCC[C@H](C(=O)N(C)C)C1` [Compound 100, (3S)-1-[(2R)-2-[[2-chloro-4-(2-chlorophenyl)-7-quinolyl]oxy]propanoyl]-N,N-dimethyl-piperidine-3-carboxamide], the IC50 was in the range of 1000 to 10000 nM.

`CNC(=O)[C@H]1CCCN(C(=O)[C@@H](C)Oc2ccc3c(-c4ccccc4Cl)cc(Cl)nc3c2)C1` [Compound 96, (3S)-1-[(2R)-2-[[2-chloro-4-(2-chlorophenyl)-7-quinolyl]oxy]propanoyl]-N-methyl-piperidine-3-carboxamide]: the 50% inhibitory concentration (IC50) lay in the range of 1000 to 10000 nM.

Take `C[C@H](Oc1ccc2c(-c3ccccc3Cl)ccnc2c1)C(=O)N1CCC[C@@H](C(=O)O)C1` [Compound 102, (3R)-1-[(2S)-2-[[4-(2-chlorophenyl)-7-quinolyl]oxy]propanoyl]piperidine-3-carboxylic acid]: the IC50 is 1000 to 10000 nM.

In turn, `CC(C)(Oc1ccc2c(-c3ccccc3Cl)ccnc2c1)C(=O)N1CCC[C@H](CC(=O)O)C1` [Compound 139, 2-[(3R)-1-[2-[[4-(2-chlorophenyl)-7-quinolyl]oxy]-2-methyl-propanoyl]-3-piperidyl]acetic acid] showed an IC50 of 1000 to 10000 nM.

For the molecule `C[C@@H](Oc1ccc2c(-c3ccccc3Cl)cc(F)nc2c1)C(=O)O` [Compound 90, (2R)-2-[[4-(2-chlorophenyl)-2-fluoro-7-quinolyl]oxy]propanoic acid], the IC50 was 1000 to 10000 nM.

`CCOC(=O)[C@H]1CCN(C(=O)[C@@H](C)Oc2ccc3c(-c4ccc(F)cc4Cl)ccnc3c2)C1` [Compound 75, ethyl (3S)-1-[(2R)-2-[[4-(2-chloro-4-fluoro-phenyl)-7-quinolyl]oxy]propanoyl]pyrrolidine-3-carboxylate] had a 50% inhibitory concentration (IC50) of 100 to 1000 nM.

In the case of `C[C@@H](Oc1ccc2c(-c3ccccc3OC(F)(F)F)ccnc2c1)C(=O)N1CCC[C@H](CC(=O)O)C1` [Compound 137, 2-[(3R)-1-[(2R)-2-[[4-[2-(trifluoromethoxy)phenyl]-7-quinolyl]oxy]propanoyl]-3-piperidyl]acetic acid], the IC50 lay in the range of 1000 to 10000 nM.

In turn, `Cc1cc(F)cc(C)c1-c1ccnc2cc(O[C@H](C)C(=O)N3CCC[C@H](C(=O)O)C3)ccc12` [Compound 84, (3S)-1-[(2R)-2-[[4-(4-fluoro-2,6-dimethyl-phenyl)-7-quinolyl]oxy]propanoyl]piperidine-3-carboxylic acid] returned an IC50 of less than 20 nM.

With `C[C@@H](Oc1ccc2c(-c3ccccc3Cl)ccnc2c1)C(=O)O` [Compound 103, (2R)-2-[[4-(2-chlorophenyl)-7-quinolyl]oxy]propanoic acid], the IC50 lay in the range of 1000 to 10000 nM.

On to `COc1cccc(Cl)c1-c1ccnc2cc(O[C@H](C)C(=O)N3CCC[C@H](CC(=O)O)C3)ccc12` [Compound 152, 2-[(3R)-1-[(2R)-2-[[4-(2-chloro-6-methoxy-phenyl)-7-quinolyl]oxy]propanoyl]-3-piperidyl]acetic acid], for which the IC50 is 1000 to 10000 nM.

As for `C[C@@H](Oc1ccc2c(-c3ccc(F)cc3Cl)ccnc2c1)C(=O)N1CC2(COC2)C1` [Compound 218, (2R)-2-[[4-(2-chloro-4-fluoro-phenyl)-7-quinolyl]oxy]-1-(2-oxa-6-azaspiro[3.3]heptan-6-yl)propan-1-one], the IC50 lay within 1000 to 10000 nM.

The molecule `C[C@@H](Oc1ccc2c(-c3ccccc3C#N)ccnc2c1)C(=O)N1CCC[C@H](CC(=O)O)C1` [Compound 143, 2-[(3R)-1-[(2R)-2-[[4-(2-cyanophenyl)-7-quinolyl]oxy]propanoyl]-3-piperidyl]acetic acid] returned an IC50 of 100 to 1000 nM.

With `CC(C)NC(=O)C(C)Oc1ccc2c(-c3ccc(F)cc3Cl)ccnc2n1` (racemic) [Compound 109, 2-[[5-(2-chloro-4-fluoro-phenyl)-1,8-naphthyridin-2-yl]oxy]-N-isopropyl-propanamide], the IC50 was 1000 to 10000 nM.

`C[C@@H](Oc1ccc2c(-c3cccc(F)c3Cl)ccnc2c1)C(=O)N1CCC[C@H](CC(=O)O)C1` [Compound 65, 2-[(3R)-1-[(2R)-2-[[4-(2-chloro-3-fluoro-phenyl)-7-quinolyl]oxy]propanoyl]-3-piperidyl]acetic acid] returned an IC50 of 20 to 100 nM.

Take `CCOC(=O)c1cccc(NC(=O)[C@@H](C)Oc2ccc3c(-c4ccc(F)cc4Cl)ccnc3c2)c1` [Compound 108, ethyl 3-[[(2 R)-2-[[4-(2-chloro-4-fluoro-phenyl)-7-quinolyl]oxy]propanoyl]amino]benzoate]: the IC50 is 1000 to 10000 nM.

As for `CCOC(=O)C1CCN(C(=O)[C@@H](C)Oc2ccc3c(-c4ccc(F)cc4Cl)ccnc3c2)CC1` [Compound 58, ethyl 1-[(2R)-2-[[4-(2-chloro-4-fluoro-phenyl)-7-quinolyl]oxy]propanoyl]piperidine-4-carboxylate], the IC50 lay within 100 to 1000 nM.

`COc1ccccc1-c1ccnc2cc(O[C@H](C)C(=O)N3CCC[C@H](CC(=O)O)C3)ccc12` [Compound 135, 2-[(3R)-1-[(2R)-2-[[4-(2-methoxyphenyl)-7-quinolyl]oxy]propanoyl]-3-piperidyl]acetic acid]: the IC50 lay within 1000 to 10000 nM.
